Results: BindingDB's records for doi:10.1021/jm00109a029 (Research Biochemicals, 1991)

Assay: Compound was evaluated for inhibition of specifically bound [3H]- cocaine (2.7 nM) against Dopamine transporter in cynomolgus monkeys

## COC(=O)C1C2CCC(C[C@@H]1c1ccc(F)cc1)N2 (stereo partly specified)
  IC50: 36 nM
